How the values were obtained:
C. elegans CL4176 = assay: Nematode toxicity assay; format: in vivo, Caenorhabditis elegans; conditions: 24 and 48 h, tested dose, Figure S19
Procedure: To eliminate the confounding factor of toxicity in the procedure, CL4176 worms were exposed to increasing concentrations of circumdatin D dissolved in NGM (0, 100, 200, 500 µM) for 24 h and 48h at 16 °C, respectively. Further, nematodes were exposed to 0.4% DMSO as the negative control. The animals were scored as live or death using a Motic dissecting microscope (Motic Inc., LTD., Hong Kong, China). The worms were considered as death if there was no response when gently touched with a platinum wire. Each independent assay included three NGM plates with thirty worms in each one. Toxicity was expressed as a total percentage of worm survival.

BV-2 cells [1] = assay: ELISA for TNF-α and IL-1β in LPS-induced BV-2 cells; format: cell-based, murine; conditions: 1 μg/ml LPS, 10, 20, 50 μM, 6 h TNF-α, 8 h IL-1β
Procedure: Cells were treated with different concentrations of circumdatin D in the presence or absence of LPS for indicated time. Then, the culture media were collected and centrifuged at 12,000g, 4°C for 20 min. The levels of TNF-α and IL-β in the supernatants were determined by ELISA kits according to the manufacturer's instructions.

primary cortical neurons = assay: MTT assay in primary neuron-enriched cells; format: cell-based, Sprague Dawley rats; conditions: 48 h, 1–100 μM
Procedure: (§1) Primary microglia were prepared from the cortical tissue of neonatal (1–3 d) Sprague Dawley rats as [Ni and Aschner (2010)] described and primary cortical neurons were isolated from embryos of pregnant Sprague Dawley rats of E-18 ([Zeng et al., 2012]). All experimental manipulations with the animals was reviewed and approved by the animal experimental ethics committee of Peking University. The animals used in the work were performed in accordance with the Animal Care and Use Guidelines of Peking University.
(§2) In vitro cytotoxicity was detected using the MTT assay. Cells were treated with different concentrations of circumdatins in the presence or absence of LPS for 48 h. Then, MTT reagent was added to each well and the plates were further incubated at 37°C for 4 h. The absorbance was read at 570 nm using a microplate spectrophotometer (Thermo Scientifics, USA).

primary microglia cells = assay: MTT assay in primary microglia; format: cell-based, Sprague Dawley rats; conditions: untreated and LPS-stimulated cells, 1–100 μM, 48 h
Procedure: as §1, §2
Cell surviability was detected using the MTT assay. Cells were seeded in 96-well plates and incubated overnight, following which the cells were treated with different concentrations of circumdatins with or without 1µg/mL of LPS for indicated time. Then, the cells were subsequently cultured with MTT and incubated for 4 hours at 37°C. Thereafter, the purple formazan dye was dissolved in DMSO and the absorbance was measured at 570 nm.

NF-κB signaling pathway = assay: NF-κB p65 translocation and IKK/IκB phosphorylation in LPS-induced BV-2 cells; format: cell-based, murine; conditions: 1 μg/ml LPS, 10, 20, 50 μM, 3 h
Procedure: BV2 cells were seeded on glass coverslips and treated with circumdatin D in the presence or absence of LPS for indicated time. After that, the cells were washed twice with PBS and fixed with cold 4% paraformaldehyde for 30 min. Then, the cells were permeabilized with 0.1% Triton X-100 for 10 min and blocked with 5% bovine serum albumin for 1 h. After incubation with primary antibodies overnight at 4°C, the cells were incubated with Alexa Fluor 488-conjugated secondary antibodies (Proteintech, USA) for 1 h at room temperature. Furthermore, Hochest 33342 was added to stain cell nuclei. Images were acquired and analyzed using a confocal microscope (Leica, Germany).
(§3) Total cell proteins were lysed using cell extraction buffer containing phenylmethylsulfonyl ﬂuoride and protease inhibitor cocktail. The cytosolic and nuclear extracts were collected using the Nuclear and Cytosolic extraction kit. The protein extracts were separated on SDS-PAGE and transferred to PVDF membranes (Millipore). The membrane was blocked with 5% nonfat milk for 1 h at room temperature, and incubated with indicated primary antibodies overnight at 4°C. After washing, the membrane was incubated with secondary antibodies conjugated to horseradish peroxidase (Proteintech, USA) at room temperature for 1 h. Then, the proteins of interest were visualized utilizing a chemiluminescence (ECL) detection system. The relative optical densities were analyzed using the Image Master™ 2D Elite software.

[2] = tested on: primary cortical neurons co-cultured with LPS-activated primary microglia; assay: Microglia-neuron co-culture neuroprotection (MTT, TUNEL, crystal violet); format: cell-based, Sprague Dawley rats
Procedure: For co-culture experiments, primary microglia cells were seeded on the upper insert of Transwell chambers (pore size 3 μm; Corning Costar, USA) in 24-well plates, and neurons were grown in the lower plate wells. Circumdatin D was added to primary microglia cells 1 h before LPS stimulation. After 48 h of coculture, the neurons in the bottom of 24-well plate were collected for the following experiments.
[…] Then, the cells were stained with 1% crystal violet solution for 15 min. Images were captured with an optical microscope. Five different fields were selected for each group for observing cellular morphology.
[…] TUNEL staining was performed to detect apoptosis using in situ cell death detection Kit (Roche Diagnostics, Mannheim, Germany). Hochest 33342 staining was used to detect total cell nuclei. Images were taken and analyzed on a confocal microscopy (Leica, Germany). Six fields from each sample were randomly selected and analyzed.

TLR4 and MyD88 = assay: Western blot of TLR4 and MyD88 in LPS-induced BV-2 cells; format: cell-based, murine; conditions: 1 μg/ml LPS, 10, 20, 50 μM, 6 h
Procedure: as §3

BV-2 cells [3] = assay: LPS-induced NO production in BV-2 cells (Griess method); format: cell-based, murine; conditions: 1 μg/ml LPS, 24 h
Procedure: BV-2 cells (murine microglia cell line) was obtained from Peking Union Medical College, Cell Bank (Beijing, China) and maintained in DMEM containing 10% FBS. Cells were grown in a humidified atmosphere of 5% CO2 incubator at 37°C.
BV2 cells were seeded and incubated overnight, and followed by treatment with different doses of circumdatins for indicated period with or without LPS (1 μg/ml) stimulation. The cells without circumdatins and LPS treatment were used as the control group.
The NO levels in culture media was determined using a Griess method. Cells were treated with different concentrations of circumdatins in the presence or absence of LPS for 24 h. After that, the supernatant fraction of the culture media was collected and mixed with the same volume of Griess reagent (1% sulfanilamide/0.1% naphthyl ethylene diamine dihydrochloride/2% H3PO4). Then, the absorbance was measured at 540 nm using a microplate spectrophotometer (Thermo Scientifics, USA). The concentration of nitrite was calculated from a calibration curve obtained from standards sodium nitrite solutions.

ERK1/2-JNK1/2-p38 MAPKs = assay: MAPK phosphorylation in LPS-induced BV-2 cells (Western blot); format: cell-based, murine; conditions: 1 μg/ml LPS, 10, 20, 50 μM, 3 h
Procedure: as §3

## COc1ccc2c(c1)C(=O)N1CCC[C@H]1c1nc3ccc(OC)cc3c(=O)n1-2 [circumdatin D]
C. elegans CL4176
  toxicity on CL4176 nematodes (survival): no toxicity on the normal survival of the nematode
BV-2 cells [1]
  LPS-induced TNF-α and IL-1β production (ELISA): suppressed LPS-induced TNF-α and IL-1β production
Primary cortical neurons
  direct toxicity to neurons (MTT): no direct toxic to neurons
Primary microglia cells
  toxicity in primary microglial cultures (MTT): low toxicity
NF-κB signaling pathway
  NF-κB nuclear translocation (immunofluorescence): inhibited LPS-induced NF-κB nuclear translocation
  nuclear NF-κB p65 levels (Western blot): reduced nuclear NF-κB p65 levels significantly
  phosphorylation levels of IKK and IκB: down-regulated the phosphorylation levels of IKK and IκB
[2]; microglia treated prior to LPS stimulation (1 μg/ml), 48 h
  neuron death in co-cultures (MTT): reduced neuron death
[2]; microglial-neuronal co-culture, 1 μg/ml LPS
  neuron apoptosis, TUNEL-positive cells: significantly reduced the numbers of TUNEL-positive cells
[2]; microglial-neuronal co-culture, 1 μg/ml LPS, 48 h
  neuronal morphology (crystal violet staining): markedly reversed the neuronal injury
TLR4 and MyD88
  LPS-induced TLR4 expression: dramatically reversed the LPS-induced TLR4 expression
  MyD88 expression: suppressed the MyD88 expression
BV-2 cells [3]
  LPS-induced NO production: significant reduction of NO levels
ERK1/2-JNK1/2-p38 MAPKs
  MAPK (ERK1/2, JNK1/2, p38) phosphorylation: markedly suppressed the phosphorylation

Reference: paper PMC7261837, “Circumdatin D Exerts Neuroprotective Effects by Attenuating LPS-Induced Pro-Inflammatory Responses and Downregulating Acetylcholinesterase Activity In Vitro and In Vivo” (Frontiers in Pharmacology, 2020)
